Drawing on a melting point compilation (Tetko et al.; mined from patent text by program, amines drawn as free bases though some values may be those of a salt), this text covers melting point for 65 compounds.

Take `COc1ccc(NN=C(Sc2ccccc2C)C(C)=O)cc1`: the melting point (in general, the temperature of the solid-liquid transition) lay within 112 to 114 °C.

Regarding `CC1(C)Cc2sccc2C1N=CNC#N` (stereo not given), the melting point was in the range of 118 to 119 °C. `Cc1ccc2cc(-c3cccc4ccccc34)ccc2n1`: the melting point was 111 °C. With `Oc1ccc(Nc2ccncc2)cc1` the figure was 246 to 248 °C; with `Cc1cc(N)ccc1-c1ccccc1CO`, 108 to 112 °C. With `Cc1ccccc1P(=O)(Cc1ccc2ccccc2c1-c1c(CP(=O)(c2ccccc2C)c2ccccc2C)ccc2ccccc12)c1ccccc1C` the figure was 231 to 234 °C; with `CCCCC(CC(=O)O)C(=O)O` (stereo not given), 82 to 83 °C. To `CCn1cc(C(=O)O)c(=O)c2ccc(F)c(C)c21` belongs 245 to 246 °C. For `CC(=O)CC(=O)Nc1ccc(-c2ncn(-c3ccc(OC(F)(F)F)cc3)n2)cc1`, the melting point was in the range of 159 to 164 °C.

`C=CCOc1cc(C)c2ccc(=O)oc2c1` showed a melting point of 83 °C. To `C[C@@H](S[C@H]1CO[C@H](c2ccc(C(=O)NCc3cccc4ccccc34)cc2)OC1)[C@](O)(Cn1cncn1)c1ccc(F)cc1F` belongs 97 °C; to `CC(C)(C)NCC(O)COc1ccccc1-c1ccc(=O)[nH]n1` (stereo not given), 162 to 164 °C. To `CNC(=O)CC1(CC(=O)O)c2ccccc2C(=O)c2ccccc21` belongs 238 to 239 °C; to `O=C(NCCN1CCC2(CC1)C(=O)NCN2c1ccccc1)c1ccc(F)cc1[N+](=O)[O-]`, 160 °C; to `CCCN(c1ccncn1)n1cc(C)c2ccccc21`, 74 to 76 °C. To `COc1ncc(CS(=O)(=O)CC(=O)O)cc1[N+](=O)[O-]` belongs 183 to 186 °C; to `COc1cc([N+](=O)[O-])c(NC(C)=O)cc1Cl`, 152 to 153 °C. `O=C(O)CCc1conc1-c1ccc(Cl)cc1` displayed a melting point of 149 to 150 °C. With `COC(=O)CC1CCc2cc(OC)ncc2C1O` (stereo not given) the figure was 92 to 96 °C; with `NC1=C(C(=O)c2ccc(Br)s2)C2=C(CCCC2)S1=O` (stereo not given), 160 to 163 °C; with `CCCCCCCCCC=C1OC(=O)N(CCCCSc2cccc3nccn23)C1=O`, 46 to 48 °C.

`O=Cc1ccc(OCCBr)c2ccccc12` had a melting point of 83 to 84 °C. To `CS(=O)(=O)c1ccc(/C(=C(\CCO[N+](=O)[O-])C(=O)O)c2ccc(Cl)cc2)cc1` belongs 143 to 144 °C; to `COc1ccc2[nH]cc(CCN3CCC(Oc4ccc(F)cc4)CC3)c2c1`, 132 to 134 °C; to `COc1ccc(C(O)Cc2c(Cl)cncc2Cl)cc1OC1CCCC1` (stereo not given), 124 to 125 °C.

As to `O=c1cc(CCN2CCC(c3c[nH]c4ccccc34)CC2)c2cc([N+](=O)[O-])ccc2[nH]1`, the melting point fell in the range of 251 to 253 °C. To `COC(=O)C(C(=O)OC)c1ccc([N+](=O)[O-])cc1C(=O)O` belongs 163 to 164 °C. Take `COc1ccc2c3c(c(=O)oc2c1)CN(CCN1CC2CCC1CC2)CC3`: the melting point is 112 to 113 °C. Consider `Cc1nc(C2OC(CO)C(O)C2O)c(N)nc1OCc1ccccc1` (stereo not given), for which the melting point was 152 to 153 °C. `CON(O)C(=O)c1ccccc1C(F)(F)F` yielded a melting point of 101 to 103 °C.

Turning to `COc1cc2ncnc(N3CCN(C(=O)NCc4cccs4)CC3)c2cc1OC`, the melting point was 168 to 170 °C. On to `Clc1nccnc1Oc1ccc(Oc2ccccc2)cc1`, for which the melting point was in the range of 53 to 55 °C.

On to `Fc1cccc(C(F)(F)F)c1N(CC1CC1)C1=NCCN1`, for which the melting point was 126 to 127 °C.

The compound `COc1ccc2nc(NC(=O)C(CC3CCCC3)c3ccc(S(=O)(=O)NCc4ccco4)cc3)sc2n1` (stereo not given) gave a melting point of 244 to 247 °C. With `NS(=O)(=O)c1ccccc1OC(F)(F)C(F)F` the figure was 117 to 119 °C. With `O=C(Nc1ccc(C(F)(F)F)cc1)NC1CCN(S(=O)(=O)c2cccc(C(F)(F)F)c2)CC1` the figure was 246 to 251 °C; with `CC(C)C(=O)NC1CCc2c(c3cc(C#N)ccc3n2Cc2ncccc2F)C1` (stereo not given), 213 to 216 °C.

For `Cc1nc2c(N)nc3cc(OCCNC(=O)OC(C)(C)C)ccc3c2n1CC(C)C`, the melting point was in the range of 227 to 228 °C.

In turn, `CC1(C)C=NC(CC(=O)O)(NC(c2ccccc2)(c2ccccc2)c2ccccc2)S1` (stereo not given) gave a melting point of 180 to 182 °C. As for `CCn1nnn(CCN2CCC(=C3c4sccc4CCn4ccnc43)CC2)c1=O`, the melting point stood at 175 °C. Take `COc1ccc(C(=O)Nc2ccc3ccc(SC)nc3n2)cc1`: the melting point is 130 °C. Consider `CCC(=O)N[C@@H](C)C(=O)N1CCC[C@H]1C(=O)NC1CCCCC1`, for which the melting point is 172 to 174 °C. With `COC(=O)c1ccc(N2CCOCC2)cc1`, the melting point lay within 152 to 154 °C. To `CC(C)CC(=O)Nc1c(C(=O)c2cc(CO)co2)[nH]c2cc(Cl)ccc12` belongs 200 to 201 °C; to `CS(=O)(=O)Nc1cc(C(O)CNC2CCN(c3ccc(C=C4SC(=O)NC4=O)cc3F)CC2)ccc1O` (stereo not given), greater than 225 °C; to `COc1ccc(N2CCCn3c2nc2c(Cl)ccc(C(OCC(F)(F)F)C4CC4)c23)c(C)n1` (stereo not given), 158 to 160 °C.

`Cn1cc(-c2cccc(N3Cc4cc(C(C)(C)C)ccc4C3=O)c2CO)cc(Nc2ccncn2)c1=O` displayed a melting point of 216 to 218 °C. To `CN(CCO)Cc1cc(C(=O)c2ccccc2F)cc(C(C)(C)C)c1O` belongs 87 to 89 °C; to `O=c1[nH]cc(C2CCCCC2)c2ccccc12`, 111 to 112 °C. Compound `O=C(Cn1ccnc1)c1ccc(-c2ccncc2)cc1` had a melting point of 144 to 146 °C. With `OCc1c(Cl)c(Cl)c(Cl)c(CO)c1Cl` the figure was 228 to 230 °C. With `COc1ccc(-c2ccc3nccn3c2)cc1-c1ccc2nonc2c1` the figure was 190 to 196 °C.

`CCN(c1ccc(N2CCN(c3ccc(O)cc3)CC2)cc1)c1nccs1` registered a melting point of 215 °C.

In turn, `Nc1ccc(-c2ccc(C(F)(F)F)cc2)cn1` displayed a melting point of 130 °C. With `COc1ccc(C2CN(C)C(=O)O2)cc1OC` (stereo not given) the figure was 132 to 133 °C; with `COc1ccc(Nc2nc(-c3ccc4scnc4c3)cn3ccnc23)cc1OC`, 179 to 181 °C. To `CN1CN(C(=O)c2c(F)cccc2F)C(=O)N(c2ccc(S(=O)(=O)C(F)F)cc2F)C1` belongs 203 to 205 °C; to `Cc1cc(CCCCCOc2ccc(C3NCCS3)cc2)on1` (stereo not given), 82 to 84 °C. To `CC(C)(C)Nc1c(Nc2ccc3ncccc3c2)c(=O)c1=O` belongs 234 to 236 °C; to `CCOC(=O)c1ncc2[nH]c3cccc(O)c3c2c1COC`, 179 to 181 °C; to `CCOC(=O)C(C)Oc1ccc(Nc2cnc3cc(Cl)ccc3n2)cc1` (stereo not given), 136 °C.

With `CC1C=C(c2nnn[nH]2)CN(CC(=O)O)C1` (stereo not given), the melting point lay in the range of 150 to 152 °C. The compound `NC(=O)N(O)Cc1sccc1Oc1ccccc1` displayed a melting point of 132 to 134 °C. To `CCCCCCc1ccc(C(=O)CCCCC(=O)O)cc1` belongs 77 to 79 °C; to `CS(=O)c1cc(=O)c2occc2s1` (stereo not given), 230 to 232 °C.
